In ChEMBL document CHEMBL1137182, “Ligand conformation has a definitive effect on 5-HT1A and serotonin reuptake affinity” (Bioorg Med Chem Lett, 2004):

Legend:
[1] = Inhibitory activity against 5-hydroxytryptamine receptor 1A using (+/-)-[3H]-8-hydroxydipropylaminotetralin; set-up: species or system Homo sapiens
[2] = biological target: Sodium-dependent serotonin transporter (Homo sapiens, UniProt P31645); assay: Inhibitory activity against human- serotonin reuptake transmitter using [3H]-citalopram as a radioligand
Sequence of Sodium-dependent serotonin transporter (P31645 whole entry): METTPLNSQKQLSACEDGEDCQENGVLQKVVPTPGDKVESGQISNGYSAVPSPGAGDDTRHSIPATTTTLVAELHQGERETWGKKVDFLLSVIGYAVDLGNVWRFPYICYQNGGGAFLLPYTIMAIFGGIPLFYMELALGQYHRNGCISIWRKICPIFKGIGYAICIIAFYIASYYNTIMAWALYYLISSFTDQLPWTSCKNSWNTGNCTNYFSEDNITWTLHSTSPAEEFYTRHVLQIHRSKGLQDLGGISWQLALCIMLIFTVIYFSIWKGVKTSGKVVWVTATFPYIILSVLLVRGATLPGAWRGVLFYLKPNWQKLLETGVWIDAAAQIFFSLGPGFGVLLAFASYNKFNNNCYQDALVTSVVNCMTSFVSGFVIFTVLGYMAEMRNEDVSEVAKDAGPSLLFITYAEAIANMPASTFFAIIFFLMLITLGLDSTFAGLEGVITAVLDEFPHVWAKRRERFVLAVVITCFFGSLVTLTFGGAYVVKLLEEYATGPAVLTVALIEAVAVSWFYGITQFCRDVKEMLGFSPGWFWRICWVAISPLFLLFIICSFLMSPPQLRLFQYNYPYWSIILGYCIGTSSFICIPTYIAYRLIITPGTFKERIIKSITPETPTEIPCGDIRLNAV

SMILES | IC50 [1] [µM] | IC50 [2] [µM]
COc1ccccc1CC1CCN([C@H]2CC[C@]3(CC2)OC(=O)c2c4c(ccc23)OCCO4)CC1 | 0.0043 | 0.059
O=C1O[C@]2(CC[C@@H](N3CCC(Cc4ccccc4F)CC3)CC2)c2ccc3c(c21)OCCO3 | 0.012 | 0.48
O=C1O[C@]2(CC[C@@H](N3CCN(Cc4ccccc4I)CC3)CC2)c2ccc3c(c21)OCO3 | 0.0096 | 0.048
O=C1O[C@]2(CC[C@@H](N3CCN(Cc4ccccc4I)CC3)CC2)c2ccc3c(c21)OCCO3 | 0.0096 | 0.054
O=C1O[C@]2(CC[C@@H](N3CCC(Cc4ccccc4Br)CC3)CC2)c2ccc3c(c21)OCCO3 | 0.0098 | 0.073
O=C1O[C@]2(CC[C@@H](N3CCC(Cc4ccccc4C(F)(F)F)CC3)CC2)c2ccc3c(c21)OCCO3 | 0.043 | 0.51
Oc1nc2cc3c(cc2c2c1[C@@H](N1CCN(Cc4ccccc4I)CC1)CCC2)OCO3 | > 1 | 0.023
Oc1nc2cc3c(cc2c2c1[C@@H](N1CCC(Cc4cc(F)ccc4F)CC1)CCC2)OCO3 (stereo in doubt; 3o) | 0.44 | 0.005
Oc1nc2cc3c(cc2c2c1[C@@H](N1CCC(Cc4cc(F)ccc4F)CC1)CCC2)OCO3 (stereo in doubt; 4o) | 0.45 | 0.014
O=C1O[C@]2(CC[C@@H](N3CCC(Cc4cc(F)ccc4Br)CC3)CC2)c2ccc3c(c21)OCCO3 | 0.011 | 0.077

More lines, now with the values ahead:

IC50 [1] [µM] | IC50 [2] [µM] | SMILES
0.014 | 0.41 | O=C1O[C@]2(CC[C@@H](N3CCC(Cc4ccccc4F)CC3)CC2)c2ccc3c(c21)OCO3
0.01 | 0.14 | O=C1O[C@]2(CC[C@@H](N3CCC(Cc4ccccc4Cl)CC3)CC2)c2ccc3c(c21)OCO3
0.014 | 0.11 | O=C1O[C@]2(CC[C@@H](N3CCC(Cc4cc(F)ccc4F)CC3)CC2)c2ccc3c(c21)OCCO3
0.0096 | 0.045 | O=C1O[C@]2(CC[C@@H](N3CCC(Cc4ccccc4Br)CC3)CC2)c2ccc3c(c21)OCO3
0.0024 | 0.091 | COc1ccc(Br)c(CC2CCN([C@H]3CC[C@]4(CC3)OC(=O)c3c5c(ccc34)OCO5)CC2)c1
0.022 | 0.25 | O=C1O[C@]2(CC[C@@H](N3CCC(Cc4cc(F)ccc4F)CC3)CC2)c2ccc3c(c21)OCO3
0.011 | 0.43 | COc1ccc(F)c(CC2CCN([C@H]3CC[C@]4(CC3)OC(=O)c3c5c(ccc34)OCCO5)CC2)c1
0.0023 | 0.092 | O=C1O[C@]2(CC[C@@H](N3CCC(Cc4cc(Cl)ccc4Cl)CC3)CC2)c2ccc3c(c21)OCO3
0.0067 | 0.15 | COc1ccccc1CC1CCN([C@H]2CC[C@]3(CC2)OC(=O)c2c4c(ccc23)OCO4)CC1
0.014 | 0.082 | O=C1O[C@]2(CC[C@@H](N3CCC(Cc4cc(F)ccc4Br)CC3)CC2)c2ccc3c(c21)OCO3
 | 0.4 | COc1ccc(F)c(CC2CCN([C@H]3CC[C@]4(CC3)OC(=O)c3c5c(ccc34)OCO5)CC2)c1
0.067 | 0.18 | O=C1O[C@]2(CC[C@@H](N3CCC(Cc4ccccc4C(F)(F)F)CC3)CC2)c2ccc3c(c21)OCO3
0.019 | 0.1 | O=C1O[C@]2(CC[C@@H](N3CCC(Cc4ccccc4Cl)CC3)CC2)c2ccc3c(c21)OCCO3
